Measurements taken from patent publication US20250262193A1, “Therapeutic Tyrosine Kinase Inhibitors For Multiple Sclerosis and Myasthenia Gravis” (Principia Biopharma Inc., priority 2022, published 2025).

Experiments:
BCRP = biological target: T1, BCRP (Homo sapiens, UniProt Q9UNQ0); details: in vitro studies; cited from earlier work
T1 sequence (Q9UNQ0 1-655): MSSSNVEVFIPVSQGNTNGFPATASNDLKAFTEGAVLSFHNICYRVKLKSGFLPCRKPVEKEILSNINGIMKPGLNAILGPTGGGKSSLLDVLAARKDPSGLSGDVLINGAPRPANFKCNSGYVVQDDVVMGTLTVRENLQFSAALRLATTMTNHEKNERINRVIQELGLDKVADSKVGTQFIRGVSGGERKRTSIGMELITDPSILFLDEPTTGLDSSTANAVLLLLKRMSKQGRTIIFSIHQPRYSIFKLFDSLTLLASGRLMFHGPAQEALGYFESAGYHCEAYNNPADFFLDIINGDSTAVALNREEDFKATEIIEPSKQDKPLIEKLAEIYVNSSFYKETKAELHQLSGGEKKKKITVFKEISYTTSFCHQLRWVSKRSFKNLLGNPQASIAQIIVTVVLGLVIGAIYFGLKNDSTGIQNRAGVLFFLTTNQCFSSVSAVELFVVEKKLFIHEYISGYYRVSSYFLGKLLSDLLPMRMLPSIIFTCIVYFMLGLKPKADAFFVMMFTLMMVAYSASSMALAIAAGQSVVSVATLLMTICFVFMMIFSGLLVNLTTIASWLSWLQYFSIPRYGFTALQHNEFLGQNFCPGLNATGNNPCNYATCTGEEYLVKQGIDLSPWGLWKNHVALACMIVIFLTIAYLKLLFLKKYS

[1] = following repeated doses of teriflunomide; cited from earlier work
[2] = Drug interaction study INT16385: potent CYP3A4 inhibitor itraconazole, healthy participants; format: in vivo, human; details: with potent CYP3A4 inhibitor itraconazole 200 mg once daily for 4 days
[3] = Drug interaction study INT16726: potent CYP2C8 inhibitor gemfibrozil; CYP3A4/CYP2C8 inducer rifampicin, healthy participants; format: in vivo, human
Protocol: (§1) Tolebrutinib is a substrate of the CYP3A4 and CYP2C8 isoenzymes. […] In healthy participants, the potent CYP3A4 and moderate CYP2C8 induction by rifampicin (600 mg once daily for 8 days) decreased tolebrutinib exposure by 6-fold. Therefore, potent and also moderate (based on prediction) CYP3A inducers are not permitted due to their potential to decrease tolebrutinib exposure and efficacy.
(§2) Potent and moderate inducers of CYP3A or potent inhibitors of CYP2C8 hepatic enzymes are not permitted throughout the study (see Appendix 8A [Section 10.8]). • Tolebrutinib: Tolebrutinib is a substrate of the CYP3A4 and CYP2C8 isoenzymes. […] In healthy participants, potent CYP3A4 and moderate CYP2C8 induction by rifampicin (600 mg once daily for 8 days) decreased Tolebrutinib exposure 6-fold (INT16726 study). Therefore, potent and also moderate (based on prediction) CYP3A inducers are not permitted due to their potential to decrease Tolebrutinib exposure and efficacy. See Table 2H for the list of drugs not to be used. • Teriflunomide: Other potent CYP and transporter inducers should be avoided due to their potential to decrease teriflunomide exposure. Rifampicin and other known potent CYP and transporter inducers such as carbamazepine, phenobarbital, phenytoin, avasimibe, lumacaftor, rifapentine, rifabutin, and St John's wort, should be avoided. […]

CYP2C8 = biological target: T2, CYP2C8 (Homo sapiens, UniProt P10632); assay: Nonclinical drug metabolism studies (CYP substrate); format: in vitro ADME
T2 sequence (P10632 1-490): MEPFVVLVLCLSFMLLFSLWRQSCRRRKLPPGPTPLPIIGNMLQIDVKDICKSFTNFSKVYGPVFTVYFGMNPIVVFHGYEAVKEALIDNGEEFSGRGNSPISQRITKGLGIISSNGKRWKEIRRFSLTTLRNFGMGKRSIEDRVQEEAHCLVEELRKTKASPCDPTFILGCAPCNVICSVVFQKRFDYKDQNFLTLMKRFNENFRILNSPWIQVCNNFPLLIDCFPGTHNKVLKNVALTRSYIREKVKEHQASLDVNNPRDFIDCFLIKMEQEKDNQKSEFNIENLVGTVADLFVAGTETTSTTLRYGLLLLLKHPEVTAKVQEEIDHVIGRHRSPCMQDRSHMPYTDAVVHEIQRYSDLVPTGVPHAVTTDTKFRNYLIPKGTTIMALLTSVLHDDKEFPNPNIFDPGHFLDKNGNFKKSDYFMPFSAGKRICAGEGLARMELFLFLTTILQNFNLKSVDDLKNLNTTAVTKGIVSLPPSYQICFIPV
Protocol: as §1, §2

CYP3A4 = CYP3A4 (Homo sapiens, UniProt P08684); assay: as above; format: in vitro ADME
Sequence of CYP3A4 (P08684 whole entry): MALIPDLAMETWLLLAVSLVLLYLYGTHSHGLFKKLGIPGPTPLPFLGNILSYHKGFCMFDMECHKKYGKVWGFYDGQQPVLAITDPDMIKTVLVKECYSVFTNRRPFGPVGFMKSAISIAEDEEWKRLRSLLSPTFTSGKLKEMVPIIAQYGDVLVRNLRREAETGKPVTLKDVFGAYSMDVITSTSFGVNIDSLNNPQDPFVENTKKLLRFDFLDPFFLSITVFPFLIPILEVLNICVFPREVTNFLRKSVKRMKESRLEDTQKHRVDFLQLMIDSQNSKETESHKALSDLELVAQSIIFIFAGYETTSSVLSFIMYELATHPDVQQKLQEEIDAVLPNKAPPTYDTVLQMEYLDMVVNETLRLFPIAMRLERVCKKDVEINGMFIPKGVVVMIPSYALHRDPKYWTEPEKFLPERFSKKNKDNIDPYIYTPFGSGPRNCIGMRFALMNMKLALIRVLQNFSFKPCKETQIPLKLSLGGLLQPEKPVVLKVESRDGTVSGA
Protocol: as §1, §2

[4] = Study TDR16862: up to 240 mg once daily for 14 days under fed conditions, healthy participants; format: in vivo, human
Protocol: as §1, §2

[5] = Phase 2b dose-finding trial DRI15928 in participants with relapsing multiple sclerosis; format: in vivo, human; details: for alanine aminotransferase (ALT): 1 participant, normal range 6 to 34 U/L; for time for ALT to return to normal range: treatment continued
Source text: All safety summaries will be descriptive; no statistical significance tests will be performed on safety data. This includes treatment-emergent adverse events (TEAEs) and other safety information (eg, clinical laboratory evaluations, electrocardiograms [ECGs], and vital signs). TEAEs are defined as adverse events (AEs) that developed or worsened or became serious during the treatment period. These analyses will be based on the safety population, defined as all participants randomly assigned and exposed to study intervention, regardless of the amount of exposure, analyzed according to the treatment actually received. • Two participants had treatment-emergent transient alanine aminotransferase (ALT) increase >3×ULN, 1 during the 30 mg SAR442168 treatment period (at Week 8, 105 U/L [normal range 6 to 34 U/L]) that returned to normal range within 4 days and 1 during the 60 mg SAR442168 treatment period (at Week 4, 107 U/L [normal range 6 to 34 U/L]). The participant in the 60 mg group had slightly elevated ALT at screening (48 U/L) and at baseline (50 U/L); ALT levels returned to the normal range in 8 weeks. Both participants continued study treatment during this period. All other liver enzyme levels for both participants were within normal ranges during the treatment period; one event was assessed as related and one as unrelated to the study drug by the Investigators. Both participants completed the DRI15928 study and successfully rolled over to the LTS follow-up study. • One event of mild petechia in a participant (at Week 8 in the SAR442168 30 mg group) and 2 events of mild microscopic hematuria in 2 male participants (1 event at Week 16 in the SAR442168 30 mg group and 1 event on Day 1 in the SAR442168 60 mg group, with occult blood noted in urine) were reported during the treatment period in the SAR442168 Phase 2b trial. The hematology results were clinically insignificant for all 3 participants from the onset of the events. The participant with mild petechia had benign pigmentary lesions noted during screening, and the event was assessed as related to the study drug by the Investigator. The 2 events of mild microscopic hematuria were assessed as unrelated to the study drug.
The choice of the dose of 60 mg of the BTK inhibitor taken with food is based on the results of a Phase 2b dose-finding trial for tolebrutinib in participants with relapsing multiple sclerosis (DRI15928). See for example, Reich, D. S., et al., Safety and efficacy of tolebrutinib, an oral brain-penetrant BTK inhibitor, in relapsing multiple sclerosis: a phase 2b, randomised, double-blind, placebo-controlled trial. Lancet Neurol, 2021. 20(9): p. 729-738.
There were low numbers of AESIs and PCSAs observed.

[6] = Ongoing Phase 3 and LTS studies: safety (drug-induced liver injury); format: in vivo, human
Source text: Drug-induced liver injury has been identified in the ongoing tolebrutinib Phase 3 trials. […] Thus, there is a need to mitigate the risk of hepatic injury and provide safe treatment for patients with MS or MG.
All safety summaries will be descriptive; no statistical significance tests will be performed on safety data. This includes treatment-emergent adverse events (TEAEs) and other safety information (eg, clinical laboratory evaluations, electrocardiograms [ECGs], and vital signs). TEAEs are defined as adverse events (AEs) that developed or worsened or became serious during the treatment period. These analyses will be based on the safety population, defined as all participants randomly assigned and exposed to study intervention, regardless of the amount of exposure, analyzed according to the treatment actually received. • Two participants had treatment-emergent transient alanine aminotransferase (ALT) increase >3×ULN, 1 during the 30 mg SAR442168 treatment period (at Week 8, 105 U/L [normal range 6 to 34 U/L]) that returned to normal range within 4 days and 1 during the 60 mg SAR442168 treatment period (at Week 4, 107 U/L [normal range 6 to 34 U/L]). […] All other liver enzyme levels for both participants were within normal ranges during the treatment period; one event was assessed as related and one as unrelated to the study drug by the Investigators. […]

[7] = Blood-brain barrier crossing

SMILES: C/C(O)=C(\C#N)C(=O)Nc1ccc(C(F)(F)F)cc1 [teriflunomide]
- substrate of the efflux transporter BCRP (BCRP): substrate
- ethinylestradiol and levonorgestrel exposure [1]: Increase

SMILES: C=CC(=O)N1CCC[C@@H](n2c(=O)n(-c3ccc(Oc4ccccc4)cc3)c3c(N)nccc32)C1 [tolebrutinib, (R)-1-(1-acryloylpiperidin-3-yl)-4-amino-3-(4-phenoxyphenyl)-1H-imidazo[4,5-c]pyridin-2(3H)-one]
- increase of area under the curve (AUC) exposure [2]: 1.8 fold
- decrease of exposure ([3]; potent CYP3A4 and moderate CYP2C8 induction by rifampicin 600 mg once daily for 8 days): 6 fold
- increase of AUC exposure ([3]; with potent CYP2C8 inhibitor gemfibrozil 600 mg twice daily for 6 days): 8.4 fold
- substrate of CYP2C8 isoenzyme (CYP2C8): substrate
- substrate of CYP3A4 isoenzyme (CYP3A4): substrate
- safety and tolerability profile [4]: satisfactory
- alanine aminotransferase (ALT) ([5]; 30 mg treatment period, Week 8): 105 U/L
- alanine aminotransferase (ALT) ([5]; 60 mg treatment period, Week 4, 48 U/L at screening, 50 U/L at baseline): 107 U/L
- events of mild microscopic hematuria ([5]; 2 male participants: Week 16 in 30 mg group, Day 1 in 60 mg group, resolved spontaneously): 2 events
- cardiac arrhythmia ([5]; ECG monitoring): no clinically significant cardiac arrhythmia was observed
- AESIs and PCSAs observed ([5]; Phase 2b): low numbers
- correlation between dose administered and number of TEAEs ([5]; Phase 2b): no correlation
- new risks identified ([5]; Phase 2b): no new risks were identified
- most frequently reported infections (≥3 events total) ([5]; Phase 2b treatment period): upper respiratory tract infection, nasopharyngitis, gastroenteritis, and respiratory tract infection
- severe infections ([5]; Phase 2b treatment period): No severe infections occurred
- participants with treatment-emergent transient ALT increase >3×ULN ([5]; Phase 2b, 1 at 30 mg, 1 at 60 mg): Two
- food effect: increase in AUC0-24 ([5]; fed status, Phase 2b PK data): approximately 2 fold
- events of mild petechia ([5]; female participant, Week 8, 30 mg group, resolved spontaneously): One
- cytopenia, including thrombocytopenia and neutropenia ([5]; hematologic laboratory results): No clinically significant cytopenia
- correlation between treatment response and exposure ([5]; new gadolinium-enhancing T1-hyperintense lesions after 12 weeks of treatment): higher exposure was associated with low numbers of new gadolinium-enhancing T1-hyperintense lesions
- time for ALT to return to normal range ([5]; participant of the 30 mg treatment period): ≤ 4 days
- time for ALT to return to normal range ([5]; participant of the 60 mg group): 8 weeks
- most common events (preferred terms) ([5]; tolebrutinib treatment arms, Phase 2b): headache, upper respiratory tract infection, and nasopharyngitis
- tolerability ([6]; ongoing Phase 3 and LTS studies, to date): generally well tolerated
- reversibility of DILI / liver enzyme elevation after treatment discontinuation ([6]; ongoing Phase 3 trials): appear reversible
- blood-brain barrier crossing [7]: crosses the blood-brain barrier
